In patent US4560695A, “Isoxazolyl and isothiazolyl aromatase inhibitors” (Eli Lilly and Company, priority 1984, dated 1985):

What was measured:
estrogen synthesis = assay: Estrogen synthesis inhibition in rats (uterine weight and ovarian steroid concentrations); type: in vivo, Wistar rats; conditions: seven days
Description: By virtue of their ability to inhibit the enzyme aromatase, the compounds of this invention are able to inhibit the synthesis of estrogens in mammals, thereby making the compounds useful in the treatment of estrogen-dependent diseases, such as breast cancer.
Immature female Wistar rats (44-55 grams) were divided into control and test groups of 5-8 animals each. Test compounds were administered for seven days as a component of the diet. Control animals received diet without the test compound. Beginning on the fourth day of the test, all animals treated with the test compound and one half of the control animals were given a subcutaneous injection of 1.0 mg of testosterone propionate in corn oil. The remaining control animals received only an equivalent volume of corn oil. On the seventh day of the test, rats treated with testosterone propionate were injected subcutaneously with 100 μCi of [^3 H]-testosterone in 50 μl of 3:1 (v/v) saline-ethanol.
After two hours, the animals were killed by decapitation. Uteri were isolated, trimmed of extraneous connective tissue, and weighed. […] In the control animals treated with testosterone propionate, estrogens produced by aromatization stimulated the uterus resulting in an increase in weight. […] Ovaries from rats treated with [^3 H]-testosterone were excised, cleaned of extraneous tissue, and homogenized in 2.5 ml of a 1.0 mM potassium phosphate buffer containing 3.0 mM MgCl2.6H2 O, 320 mM sucrose, and 0.25% Triton X-100 (polyethylene glycol p-isooctyl phenyl ether, Rohm and Haas) at pH 6.5. The ovarian steroids were extracted with 1.5 ml of 9:1 (v/v) toluene/ethanol to which had been added 25 to 100 mcg each of unlabelled estradiol, estriol, and estrone, and approximately 1000 dpm of [^14 C]-estradiol. The samples were vortexed, centrifuged at 500×g for 10 minutes, and the organic phase was transferred to a conical vial. Two additional extractions were performed on the residue in the same way. The pooled organic extracts were evaporated for subsequent thin-layer chromatography.
Ovarian proteins were precipitated by the addition of 5.0 ml of ethanol to the remaining aqueous phase. […] Protein was determined according to the method of Bradford, Analytical Biochemistry, 72, 248 (1976). […]
The visible spots were marked and the plates were sprayed with primulin (0.001% in 4:1 v/v acetone/water) according to the method of Wright, J. Chromatography, 59, 220 (1971) which allowed for the identification of additional steroids under 365 nm UV light. […] The organic solvent was evaporated and 10.0 ml of scintillation fluid (Beckman Ready Solv-NA) was added to the vials. Samples were analyzed by liquid scintillation spectrometry. […] Steroid concentrations are expressed as femtomoles per milligram protein.

aromatase = molecular target: T1, aromatase (Rattus norvegicus, UniProt P22443); assay: Aromatase inhibition in the rat ovarian microsome assay; type: biochemical; conditions: substrate (androstenedione) concentration 0.1 μM; rat ovarian microsomes
T1 construct: ovarian microsomes are obtained from rats treated with pregnant mares serum gonadotropin; from tissue; host or cells: ovarian microsomes from rats treated with pregnant mares serum gonadotropin
T1 sequence (P22443 1-508): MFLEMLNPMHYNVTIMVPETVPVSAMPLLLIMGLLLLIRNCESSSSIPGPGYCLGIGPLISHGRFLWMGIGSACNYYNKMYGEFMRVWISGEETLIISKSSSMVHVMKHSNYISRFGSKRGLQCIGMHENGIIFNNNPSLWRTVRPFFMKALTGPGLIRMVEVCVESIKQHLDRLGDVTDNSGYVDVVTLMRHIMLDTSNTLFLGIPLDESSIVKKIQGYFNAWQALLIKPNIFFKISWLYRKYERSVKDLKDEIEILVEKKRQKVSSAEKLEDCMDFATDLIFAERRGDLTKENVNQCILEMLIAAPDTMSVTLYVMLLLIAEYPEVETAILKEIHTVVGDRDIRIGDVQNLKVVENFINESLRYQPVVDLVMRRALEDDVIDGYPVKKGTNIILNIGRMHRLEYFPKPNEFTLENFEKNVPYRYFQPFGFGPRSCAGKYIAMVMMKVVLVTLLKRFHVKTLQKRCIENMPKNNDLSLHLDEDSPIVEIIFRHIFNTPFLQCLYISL
Description: In this test system, ovarian microsomes are obtained from rats treated with pregnant mares serum gonadotropin. Test compounds are added to reaction vials containing 0.1 μM 4-androstene-3,17-dione, 100,000 dpm 1,2[^3 H]-androstenedione, the microsomes and a NADPH generating system. The concentrations of the inhibitors tested ranged between 0.005 and 10 μM.

breast cancer = conditions: Cancer Research, Vol. 42, Suppl. 8:3261s (1982); cited from earlier work

With `OC(c1ccc(Cl)cc1)(c1ccc(Cl)cc1)c1ccns1` [Example 1, α,α-Bis(4-chlorophenyl)-5-isothiazolemethanol] the “Mean Uterine Weight” value (estrogen synthesis; 200 ppm in feed (approximately 20 mg/kg/day), testosterone propionate-treated immature female Wistar rats, 5 animals, ^+ p < 0.05 vs testosterone-treated control (203.4)) was 110.8 mg, the “Mean Steroid Concentration, estriol” value (estrogen synthesis; ovaries, 200 ppm in feed, [3H]-testosterone, ^+ p < 0.05 vs testosterone-treated control (0.25)) was 0.88 femtomoles per milligram of protein and the “Mean Steroid Concentration, estrone” value (estrogen synthesis; ovaries, 200 ppm in feed, [3H]-testosterone, testosterone-treated control 0.19) was 0.44 femtomoles per milligram of protein. The “Mean Steroid Concentration, estradiol” value (estrogen synthesis; ovaries, 200 ppm in feed, [3H]-testosterone, testosterone-treated control 1.70) was 1.18 femtomoles per milligram of protein.

With `OC(c1ccccc1)(c1ccccc1)c1ccns1` [Example 2, α,α-Diphenyl-5-isothiazolemethanol] the EC50 (aromatase) was 4.45 µM.

In the case of `CCC1(c2ccc(N)cc2)CCC(=O)NC1=O` (stereo not shown) [aminoglutethimide], the “Effect in treatment of breast cancer” value (breast cancer) is listed as “beneficial effect”.

For `C[C@]12C=CC(=O)C=C1CC[C@@H]1[C@@H]2CC[C@]2(C)OC(=O)CC[C@@H]12` [testolactone], the “Effect in treatment of breast cancer” value (breast cancer) is listed as “beneficial effect”.
